From PubChem BioAssay (NCI)
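96-well plates; 48 h exposure; 5 concentrations. Endpoints by linear interpolation between flanking doses. Not reached: highest tested concentration assigned. TGI: total growth inhibition.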

What was measured:
Experiment in all cases: growth of human tumour cells (NCI), 48 h
786-0 renal = system: 786-0 renal
A498 renal = system: A498 renal
ACHN renal = system: ACHN renal
COLO 205 colon = system: COLO 205 colon
HCC-2998 colon = system: HCC-2998 colon
M14 melanoma = system: M14 melanoma
NCI-H23 lung = system: NCI-H23 lung
NCI/ADR-RES ovarian = system: NCI/ADR-RES ovarian
OVCAR-3 ovarian = system: OVCAR-3 ovarian
SF-295 CNS = system: SF-295 CNS
SK-MEL-5 melanoma = system: SK-MEL-5 melanoma
SN12C renal = system: SN12C renal
SNB-75 CNS = system: SNB-75 CNS
SW-620 colon = system: SW-620 colon
UO-31 renal = system: UO-31 renal
CCRF-CEM leukemia = system: CCRF-CEM leukemia
HL-60(TB) leukemia = system: HL-60(TB) leukemia
OVCAR-8 ovarian = system: OVCAR-8 ovarian
HS 578T breast = system: HS 578T breast

SMILES	TGI (786-0 renal)	TGI (A498 renal)	TGI (ACHN renal)	TGI (COLO 205 colon)	TGI (HCC-2998 colon)	TGI (M14 melanoma)	TGI (NCI-H23 lung)	TGI (NCI/ADR-RES ovarian)	TGI (OVCAR-3 ovarian)	TGI (SF-295 CNS)	TGI (SK-MEL-5 melanoma)	TGI (SN12C renal)	TGI (SNB-75 CNS)	TGI (SW-620 colon)	TGI (UO-31 renal)	TGI (CCRF-CEM leukemia)	TGI (HL-60(TB) leukemia)	TGI (OVCAR-8 ovarian)	TGI (HS 578T breast)
COC(=O)C1(CCC(C)=O)CCCCCC1=O (stereo not drawn)	> 100 µM	> 100 µM	> 100 µM	> 100 µM	> 100 µM	> 100 µM	> 100 µM	> 100 µM	> 100 µM	> 100 µM	> 100 µM	> 100 µM	> 100 µM	> 100 µM	> 100 µM				
Cn1cc2ccccc2c1-c1nc(F)nc(F)n1	> 100 µM	> 100 µM	> 100 µM	> 100 µM	> 100 µM	> 100 µM	> 100 µM		> 100 µM	> 100 µM	> 100 µM	> 100 µM	> 100 µM	> 100 µM	> 100 µM	> 100 µM	> 100 µM		
O=C(CSc1nnc(-c2ccc(N=Cc3ccc(Cl)cc3)cc2)o1)Nc1ccccc1[N+](=O)[O-]	> 100 µM		> 100 µM	> 100 µM		> 100 µM	> 100 µM			> 100 µM	> 100 µM	> 100 µM	> 100 µM	> 100 µM	> 100 µM	> 100 µM	> 100 µM	> 100 µM	
CCc1n[nH]c(=O)n1/N=C/c1c(O)ccc2ccccc12	> 100 µM		> 100 µM	> 100 µM	> 100 µM	> 100 µM	> 100 µM	> 100 µM	> 100 µM	> 100 µM	> 100 µM	> 100 µM	> 100 µM	> 100 µM	> 100 µM	> 100 µM		> 100 µM	
C=Cc1ccc(C)[n+](C[Si](C)(C)O[Si](C)(C)C)c1	> 100 µM		> 100 µM	> 100 µM	> 100 µM	> 100 µM	> 100 µM		> 100 µM	> 100 µM	> 100 µM	> 100 µM	> 100 µM	> 100 µM	> 100 µM	> 100 µM		> 100 µM	
COc1ccc2c3c1O[C@]1(C)C34CCN(C)C(C2)C42C=C[C@@]1(OC)c1c(O)ccc(O)c12	> 100 µM	> 100 µM	> 100 µM	> 100 µM	> 100 µM		> 100 µM		> 100 µM	> 100 µM	> 100 µM		> 100 µM	> 100 µM	> 100 µM	> 100 µM	> 100 µM	> 100 µM	
NC1=C(NC(=O)Cc2ccc(F)cc2)C(=O)c2ccccc2C1=O	> 100 µM		> 100 µM	> 100 µM	> 100 µM	> 100 µM	27.9 µM		> 100 µM	> 91.6 µM	> 100 µM	> 100 µM	52.5 µM	> 100 µM	> 100 µM	> 100 µM	98.6 µM	98.5 µM	
O=C1NC2ON=C(c3ccccc3)C2C2ON=C(c3ccccc3)N12 (stereo not drawn)	> 100 µM		> 100 µM	> 100 µM	> 100 µM	> 100 µM	> 100 µM	> 100 µM	> 100 µM	> 100 µM	> 100 µM		> 100 µM		> 100 µM			> 100 µM	> 100 µM
CNS(=O)(=O)NN(C)S(=O)(=O)c1ccccc1	> 100 µM	> 100 µM	> 100 µM	> 100 µM	> 100 µM	> 100 µM	> 100 µM			> 100 µM	> 100 µM	> 100 µM	> 100 µM	> 100 µM	> 100 µM	> 100 µM	> 100 µM	> 100 µM	
NC(=O)N/N=C(\CC1OC(=O)c2ccccc21)c1ccco1 (stereo not drawn)	> 100 µM	> 100 µM	> 100 µM	> 100 µM	> 100 µM	> 100 µM	> 100 µM		> 100 µM	> 100 µM	> 100 µM		> 100 µM	> 100 µM	> 100 µM	> 100 µM	> 100 µM		
CC1=NN(C(=O)c2ccccc2O)C(=O)/C1=C/c1ccco1	> 100 µM	> 100 µM	> 100 µM	> 63.8 µM	> 100 µM	> 100 µM	> 26.9 µM	85.3 µM	6.11 µM	> 88.3 µM	9.19 µM	> 39.3 µM	69.4 µM	> 100 µM		> 100 µM	> 26.8 µM	97.9 µM	
C[C@]12CCC(=O)C=C1CC[C@@H]1[C@@H]2CC[C@]2(C)C(=O)NC(=O)C[C@@H]12	> 100 µM	> 100 µM	> 100 µM	> 100 µM	> 100 µM	> 100 µM	> 100 µM		> 100 µM	> 100 µM	> 100 µM	> 100 µM	> 100 µM	> 100 µM	> 100 µM	> 100 µM	> 100 µM	> 100 µM	
COc1cc2c(oc(=O)c3c4oc([Si](C)(C)C)cc4cc(OC)c23)c2cccc(OCc3ccccc3)c12	34.8 µM	> 100 µM	> 100 µM	> 100 µM	> 100 µM	61.3 µM	35.6 µM		> 77.9 µM	50.9 µM	> 100 µM	> 100 µM	48 µM	> 100 µM	> 100 µM	> 100 µM	> 92 µM	> 71.5 µM	
COC(=O)N/N=C(\Cc1ccccc1)CN(C)C	> 100 µM	> 100 µM	> 100 µM	> 100 µM	> 100 µM	> 100 µM	> 100 µM		> 100 µM	> 100 µM	> 100 µM		> 100 µM	> 100 µM		> 100 µM	> 100 µM	> 100 µM	
